IC50 and Activity data for eleven compounds are collected here from ChEMBL document CHEMBL2439961, “Synthesis and evaluation of the cell cycle arrest and CT DNA interaction properties of 4β-amino-4'-O-demethyl-4-deoxypodophyllotoxins” (Bioorg Med Chem, 2013).

In one assay the test system is HepG2. The assay can be described thus: Cytotoxicity against human HepG2 cells after 48 hrs by MTT assay. The format is functional, cell-based. As to conditions: HepG2, 48 h.
Assay [1] concerns HeLa. The assay can be described thus: Cytotoxicity against human HeLa cells after 48 hrs by MTT assay. The format is functional, cell-based. In general terms: Tetrazolium assays rely on reduction of a dye to a coloured formazan, in cell work by metabolically active cells.
For a further assay, the system named is HCT-8. Description: Cytotoxicity against human HCT8 cells after 48 hrs by MTT assay. In kind it is functional, cell-based. Conditions: HCT-8, 48 h.
The test system of the next assay is A549. Description: Cytotoxicity against human A549 cells after 48 hrs by MTT assay. In kind it is functional, cell-based. Conditions: A549, 48 h.
The subject of assay [2] is HeLa. The assay can be described thus: Induction of apoptosis in human HeLa cells assessed as cell shrinkage, nuclear fragmentation and condensation dispersed throughout cytoplasm at 0.5 uM after 48 hrs by immunofluorescence analysis. The format is functional, cell-based.
For assay [3], the system named is HeLa. Description: Induction of morphological changes in human HeLa cells after 48 hrs by immunofluorescence analysis. In kind it is functional, cell-based.
The subject of assay [4] is HeLa. The assay can be described thus: Cell cycle arrest in human HeLa cells assessed as accumulation at sub-G1 phase at 0.5 uM after 24 hrs using propidium iodide staining by FACS analysis (reference value: 0%). The format is functional. (In flow cytometry, cells or beads pass a laser one at a time.)
The test system of assay [5] is HeLa. Description: Induction of apoptosis in human HeLa cells assessed as early apoptotic cells at 0.5 uM after 24 hrs using annexin V-FITC/PI and Hoechst 33258 staining by FACS analysis (reference value: 2.34%). In kind it is functional.
Assay [6] deals with HeLa. Description: Induction of apoptosis in human HeLa cells assessed as late apoptotic cells at 0.5 uM after 24 hrs using annexin V-FITC/PI and Hoechst 33258 staining by FACS analysis (reference value: 2.39%). The format is functional.
The test system of assay [7] is HeLa. The assay can be described thus: Cell cycle arrest in human HeLa cells assessed as accumulation at G2/M phase at 0.5 uM after 24 hrs using propidium iodide staining by FACS analysis (reference value: 24.4%). In kind it is functional.
Assay [8] deals with HeLa. The assay can be described thus: Increase of cyclin-B1 protein level in human HeLa cells Western blotting analysis. The format is functional, cell-based.
Assay [9] concerns HeLa. Description: Cell cycle arrest in human HeLa cells assessed as accumulation at G1 phase at 1 uM after 24 hrs using propidium iodide staining by FACS analysis (reference value: 48.5%). In kind it is functional.
In assay [10] the test system is HeLa. Description: Cell cycle arrest in human HeLa cells assessed as accumulation at G1 phase at 0.5 uM after 24 hrs using propidium iodide staining by FACS analysis (reference value: 48.5%). The format is functional.
Assay [11] relates to HeLa. Description: Cell cycle arrest in human HeLa cells assessed as accumulation at G2/M phase at 1 uM after 24 hrs using propidium iodide staining by FACS analysis (reference value: 24.4%). The format is functional.
Assay [12] concerns HeLa. Description: Increase of caspase-3 protein level in human HeLa cells Western blotting analysis. The format is functional, cell-based. Background: A western blot detects proteins with antibodies after separation by electrophoresis.
The test system of assay [13] is DNA. Description: Binding affinity to calf thymus DNA assessed as reduction in intensity of positive band at 5 to 40 ug/ml after 24 hrs by circular dichroism analysis. In kind it is nucleic-acid assay. Conditions: Bos taurus.
Assay [14] has as its system HeLa. The assay can be described thus: Induction of apoptosis in human HeLa cells assessed as early apoptotic cells at 0.25 uM after 24 hrs using annexin V-FITC/PI and Hoechst 33258 staining by FACS analysis (reference value: 2.34%). The format is functional.
The test system of assay [15] is HeLa. Description: Cell cycle arrest in human HeLa cells assessed as accumulation at S phase at 1 uM after 24 hrs using propidium iodide staining by FACS analysis (reference value: 27.1%). In kind it is functional.
In assay [16] the test system is HeLa. Description: Induction of microtubule depolymerization in human HeLa cells assessed as short and dense microtubule networks at 0.5 uM after 48 hrs using DAPI staining by immunofluorescence analysis. The format is cell-based.
The test system of assay [17] is HeLa. The assay can be described thus: Induction of apoptosis in human HeLa cells assessed as cell shrinkage, nuclear fragmentation and condensation dispersed throughout cytoplasm at 0.5 uM by immunofluorescence analysis. Conditions: TDE = time-dependent effect. In kind it is functional, cell-based.
In assay [18] the test system is HeLa. The assay can be described thus: Induction of apoptosis in human HeLa cells assessed as late apoptotic cells at 0.25 uM after 24 hrs using annexin V-FITC/PI and Hoechst 33258 staining by FACS analysis (reference value: 2.39%). The format is functional.
In assay [19] the test system is HeLa. Description: Cell cycle arrest in human HeLa cells assessed as accumulation at sub-G1 phase at 1 uM after 24 hrs using propidium iodide staining by FACS analysis (reference value: 0%). The format is functional.
Assay [20] concerns DNA. Description: Binding affinity to calf thymus DNA at 0.5 mM after 5 mins by fluorescence analysis. The format is nucleic-acid assay. Conditions: Bos taurus.
Assay [21] deals with HeLa. The assay can be described thus: Increase of p53 protein level in human HeLa cells Western blotting analysis. The format is functional, cell-based.
Assay [22] deals with HeLa. The assay can be described thus: Induction of microtubule depolymerization in human HeLa cells assessed as short and dense microtubule networks at 0.5 uM using DAPI staining by immunofluorescence analysis. In kind it is cell-based. As to conditions: TDE = time-dependent effect.
The test system of assay [23] is HeLa. The assay can be described thus: Induction of morphological changes in human HeLa cells by immunofluorescence analysis. In kind it is functional, cell-based. Conditions: TDE = time-dependent effect.
Assay [24] deals with HeLa. Description: Cell cycle arrest in human HeLa cells assessed as accumulation at S phase at 0.5 uM after 24 hrs using propidium iodide staining by FACS analysis (reference value: 27.1%). The format is functional.
Assay [25] concerns HeLa. The assay can be described thus: Cell cycle arrest in human HeLa cells assessed as accumulation at G2/M phase after 24 hrs using propidium iodide staining by FACS analysis. The format is functional, cell-based.
Assay [26] relates to HeLa. The assay can be described thus: Increase of CDC2 protein level in human HeLa cells Western blotting analysis. In kind it is functional, cell-based.

Activity calls are given as the source filed them. The rule behind the calls is not given here.

For `COc1cc([C@@H]2c3cc4c(cc3[C@@H](Nc3ccc(S(=O)(=O)N5CCN(c6ccc(F)cc6)CC5)cc3)[C@H]3COC(=O)[C@H]23)OCO4)cc(OC)c1O`, the IC50 in the assay on HepG2 was 54.4 µM; with HeLa [1], 21.9 µM; in the assay on HCT-8, 30.4 µM; in the assay on A549, 57.3 µM.

Consider `CCN1CCN([C@@H]2c3cc4c(cc3[C@@H](c3cc(OC)c(O)c(OC)c3)[C@H]3C(=O)OC[C@@H]32)OCO4)CC1`, for which the IC50 with HepG2 was determined as 5.41 µM; in the assay on HeLa [1], 3.81 µM; in the assay with HCT-8, 19.8 µM; in the assay with A549 it was 28.8 µM.

As for `COc1cc([C@@H]2c3cc4c(cc3[C@@H](N3CCN(c5ccc([N+](=O)[O-])cc5)CC3)[C@H]3COC(=O)[C@H]23)OCO4)cc(OC)c1O`, the outcome with HeLa [2], in the assay on HeLa [3], with DNA [13], in the assay with HeLa [16] and with DNA [20] was Active. Further, the Activity in the assay with HeLa [4] is 1%; in the assay on HeLa [5], 4.88%; with HeLa [6], 4.76%; in the assay on HeLa [7], 35.4%; in the assay with HeLa [8], “Dose-dependent effect”; in the assay with HeLa [9] it was 0.1%. The Activity in the assay on HeLa [10] is 5.9%; with HeLa [11] it was 71.4%; in the assay with HeLa [12], “Dose-dependent effect”; in the assay with HeLa [14], 3.99%; in the assay on HeLa [15] it was 28.6%; with HeLa [17], “tde”. The Activity in the assay on HeLa [18] is 3.54%; in the assay on HeLa [19], 4.9%; with HeLa [21], “Dose-dependent effect”; in the assay with HeLa [22] it was “tde”; in the assay on HeLa [23], “tde”; with HeLa [24] it was 58.7%. The Activity entry in the assay on HeLa [25] and with HeLa [26] was “Dose-dependent effect” throughout. Moreover, the 50% inhibitory concentration (IC50) in the assay with HepG2 worked out at 1.43 µM; in the assay on HeLa [1], 0.07 µM; with HCT-8, 2.12 µM; in the assay on A549 it was 0.16 µM.

As for `COc1cc([C@@H]2c3cc4c(cc3[C@@H](NCCNc3ccc([N+](=O)[O-])cc3)[C@H]3COC(=O)[C@H]23)OCO4)cc(OC)c1O`, the concentration for half-maximal inhibition (IC50) was 32.3 µM in the assay on HepG2, 14.8 µM in the assay on HeLa [1], 14.8 µM in the assay on HCT-8 and 25.8 µM in the assay with A549.

`COc1cc([C@@H]2c3cc4c(cc3[C@@H](N3CCN(c5ccc(F)cc5)CC3)[C@H]3COC(=O)[C@H]23)OCO4)cc(OC)c1O`: the IC50 with HepG2 turned out to be 20.6 µM; in the assay with HeLa [1], 13.6 µM; with HCT-8 it was 14.3 µM; with A549, 27.3 µM.

On to `COc1cc([C@@H]2c3cc4c(cc3[C@@H](O[C@@H]3O[C@@H]5CO[C@@H](C)O[C@H]5[C@H](O)[C@H]3O)[C@H]3COC(=O)[C@H]23)OCO4)cc(OC)c1O` [ETOPOSIDE], for which the IC50 came to 11.5 µM in the assay on HepG2, 4.73 µM with HeLa [1] and 6.54 µM in the assay on HCT-8.

On to `COc1cc([C@@H]2c3cc4c(cc3[C@@H](N3CCN(C)CC3)[C@H]3COC(=O)[C@H]23)OCO4)cc(OC)c1O`, for which the IC50 is 2.72 µM in the assay on HepG2, 3.4 µM with HeLa [1], 12.4 µM in the assay on HCT-8 and 26.4 µM in the assay on A549.

As to `COc1cc([C@@H]2c3cc4c(cc3[C@@H](N3CCN(C5CCCC5)CC3)[C@H]3COC(=O)[C@H]23)OCO4)cc(OC)c1O`, the IC50 in the assay on HepG2 is 8.42 µM; in the assay with HeLa [1], 11.6 µM; in the assay on HCT-8 it was 10.2 µM; in the assay on A549, 14.5 µM.

With `COc1cc([C@@H]2c3cc4c(cc3[C@@H](Nc3ccc(S(=O)(=O)N5CCN(c6ccc([N+](=O)[O-])cc6)CC5)cc3)[C@H]3COC(=O)[C@H]23)OCO4)cc(OC)c1O`, the IC50 in the assay with HepG2 is 38.6 µM; with HeLa [1] it was 27.8 µM; in the assay with HCT-8 it was 32.5 µM; in the assay on A549, 42.3 µM.

Turning to `COc1cc([C@@H]2c3cc4c(cc3[C@@H](NCCCNc3ccc([N+](=O)[O-])cc3)[C@H]3COC(=O)[C@H]23)OCO4)cc(OC)c1O`, the half-inhibitory concentration (IC50) was 22.4 µM in the assay on HepG2, 10.5 µM in the assay on HeLa [1], 19.7 µM with HCT-8 and 43.2 µM with A549.

In the case of `COc1cc([C@@H]2c3cc4c(cc3[C@@H](Nc3ccc(S(=O)(=O)NC5CCCC5)cc3)[C@H]3COC(=O)[C@H]23)OCO4)cc(OC)c1O`, the IC50 in the assay with HepG2 is 47.6 µM; in the assay on HeLa [1], 35.2 µM; in the assay with HCT-8, 38.7 µM; in the assay on A549, 52.4 µM.

As usually defined, the IC50 is the midpoint of a concentration-inhibition curve. Read a low IC50 as greater potency.
